Measured values taken from patent publication US20260167638A1, “PHARMACEUTICAL COMPOUND, SALTS THEREOF, FORMULATIONS THEREOF, AND METHODS OF MAKING AND USING SAME” (Genentech, Inc., priority 2018, published 2026).
In brackets after ≈: the same amount, converted by molar mass. Several values for one entry are separate records, joined by “and”; a condition that tells them apart may be missing. Identical values can stand only once.

What was measured:
[1] = Experimental determination of the pKa; type: physicochemical
[2] = Solubility in pure water at 25° C. with PXRD of solid residues; type: physicochemical; details: for pH (24 hrs) / pH (1 hr): pH of solubility sample; for pH (24 hrs) / pH (1 hr) / S 24 hrs / S 1 hr: pure water, 25° C.; for pH (1 hr) / S 1 hr: one hour; for S 24 hrs: 24 hours equilibration
Method: Using a similar strategy as described above, these salts were prepared by evaporation from a solution of free base and acid in a solvent (e.g., methanol-dichloromethane 1:1, ethyl acetate-dichloromethane 1:2, isopropanol, and the like). If necessary, an amorphous salt produced in this way was crystallized by stirring the amorphous material in an appropriate solvent (e.g., ethyl acetate, acetonitrile, and the like).

[3] = Dissolution and precipitation in pH 6.5 phosphate buffer at 37° C. containing HPMC; type: physicochemical; details: aqueous buffer
Description: The inclusion of HPMC in the tablet of Example 16 was to maintain the supersaturation of Compound I API after its mono-tosylate salt dissolves. […]

[4] = Example 21 crossover pharmacokinetics of mono-tosylate and di-tosylate tablets in fasted dogs; type: in vivo, beagle dogs; details: for Individual plasma concentration of Compound I: individual dogs 1-5; for Individual plasma concentration of Compound I / Mean plasma concentration of Compound I: phase 2, di-tosylate tablet 200 mg PO; for AUC0-last / AUC0-rt / Cmax / tmax: Example 21, fasted dogs, 200 mg tablet PO
Method: Pharmacokinetics parameters of formulations of Compound I and its salts in dogs were determined by orally administering a test formulation tablet at 200 mg of active (Compound I or salt) per dog.
Blood samples were taken at various times after administration, plasma prepared, and submitted to analysis for parent drug using a qualified LC-MS-MS assay. Pharmacokinetics parameters derived from the plasma analytical data were determined using non-compartmental analysis.
Pharmacokinetics of Compound I were determined in pentagastrin-pretreated male beagle dogs following a single oral (PO) administration at 200 mg/tablet per dog in a 2-phase crossover designed study, with a washout period of at least 7 days in between each phase. Five male, non-naive, purebred beagle dogs were used in each phase of the 2-phase crossover study. All dogs were pretreated with pentagastrin (6 μg/kg intramuscular administrations) approximately 30 minutes before test article administration.
Two tablet formulations (mono-tosylate and di-tosylate, as described above) of test article were assessed. Animals were fasted overnight prior to PO dosing through approximately 4 hours post-dose. The tablet was administered orally, followed by approximately 10 mL of reverse osmosis water. Phase 1 animals were given tablets containing Compound I mono-tosylate, and phase 2 animals were given tablets containing Compound I di-tosylate salt. Blood samples were collected pre-dose and at 0.25, 0.5. 1. 2, 4, 8, 24, 36, and 48 hours after the oral dose. Plasma was harvested, and the concentration of Compound I in each plasma sample was determined by an LC/MS/MS assay. The assay lower limit of quantitation was 20 ng/mL for Compound I. Mean Compound I concentrations measured in plasma were used to construct semi-logarithmic plasma concentration-time curves (FIG. 1). Pharmacokinetic analysis was performed using non-compartmental methods.

[5] = Water sorption / dynamic vapor sorption (DVS) hygroscopicity; type: physicochemical
Method: The pKa value of Compound I free base was calculated (ACD Labs pKa DB, v10.0) as 2.12±0.33. Therefore, Compound I free base was considered as a very weak base that could be protonated by strong acids. […] A sample of Compound I free base was analyzed by powder x-ray diffraction and found to be crystalline without any readily detectable amorphous content. […] (onset temperature).
The maximum water uptake for the amorphous salt was about 40% whereas the maximum water uptake for the crystalline di-hydrochloride salt was higher, with about 54% uptake.
The hygroscopic nature of the besylate salt was examined by dynamic vapor sorption analysis (DVS). […] Below 80% relative humidity not much water was adsorbed.

[6] = Table 5: free base and crystalline salt forms
[7] = Table 4: free base and amorphous salt forms

In the case of `Cn1cc(-c2cn(-c3ccc(OC(F)(F)F)cc3)c(=O)c3ncn(C)c23)cn1` [Compound I, 1-methyl-7-(1-methyl-1H-pyrazol-4-yl)-5-(4-(trifluoromethoxy)phenyl)-1,5-dihydro-4H-imidazo[4,5-c]pyridin-4-one], the pKa [1] is reported as 2.5, the “Solubility (24 hours)” value [2, 6] is reported as 0.057 mg/mL and the solubility at 24 h ([2]; water, 25 °C, water, thermodynamic from solid, Table 4: free base and amorphous salt forms) is reported as 57 µg/mL. For the same compound, the solubility [3] was ~80 µg/mL (≈ 205 µM).
For `Cc1ccc(S(=O)(=O)O)cc1.Cc1ccc(S(=O)(=O)O)cc1.Cn1cc(-c2cn(-c3ccc(OC(F)(F)F)cc3)c(=O)c3ncn(C)c23)cn1` [Di-tosylate], the “Individual plasma concentration of Compound I” value (“Individual plasma concentration” for short) ([4]; 0.25 hours, fasted dogs, listed as Compound I di-tosylate salt) was 1020 ng/mL and 146 ng/mL and 309 ng/mL and 29.1 ng/mL and 670 ng/mL, the “Mean plasma concentration of Compound I” value ([4]; 0.25 hours, mean, fasted dogs) was 536 ng/mL and the “Individual plasma concentration” value ([4]; 0.5 hours, fasted dogs, listed as Compound I di-tosylate salt) was 7120 ng/mL and 1820 ng/mL and 3500 ng/mL and 636 ng/mL and 2610 ng/mL. The “Mean plasma concentration of Compound I” value ([4]; 0.5 hours, mean, fasted dogs) was 3760 ng/mL, the “Individual plasma concentration” value ([4]; 1 hour, fasted dogs, listed as Compound I di-tosylate salt) was 8040 ng/mL and 6510 ng/mL and 9340 ng/mL and 1600 ng/mL and 6140 ng/mL and the “Mean plasma concentration of Compound I” value ([4]; 1 hour, mean, fasted dogs) was 7510 ng/mL. For the same compound, the “Individual plasma concentration” value ([4]; 2 hours, fasted dogs, listed as Compound I di-tosylate salt) was 8810 ng/mL and 11200 ng/mL and 13400 ng/mL and 1580 ng/mL and 8110 ng/mL, the “Mean plasma concentration of Compound I” value ([4]; 2 hours, mean, fasted dogs) was 10400 ng/mL and the “Individual plasma concentration” value ([4]; 4 hours, fasted dogs, listed as Compound I di-tosylate salt) was 6820 ng/mL and 10500 ng/mL and 13100 ng/mL and 1040 ng/mL and 6440 ng/mL. The “Mean plasma concentration of Compound I” value ([4]; 4 hours, mean, fasted dogs) was 9220 ng/mL, the “Individual plasma concentration” value ([4]; 8 hours, fasted dogs, listed as Compound I di-tosylate salt) was 2700 ng/mL and 5620 ng/mL and 5860 ng/mL and 368 ng/mL and 2040 ng/mL and the “Mean plasma concentration of Compound I” value ([4]; 8 hours, mean, fasted dogs) was 4060 ng/mL. The “Individual plasma concentration” value ([4]; 24 hours, fasted dogs, listed as Compound I di-tosylate salt) was 231 ng/mL and 1800 ng/mL and 530 ng/mL and 35.0 ng/mL and 30.0 ng/mL, the “Mean plasma concentration of Compound I” value ([4]; 24 hours, mean, fasted dogs) was 648 ng/mL and the “Individual plasma concentration” value ([4]; 36 hours, fasted dogs, listed as Compound I di-tosylate salt) was “BLQ (4×) and 273 ng/mL”. For the same compound, the “Mean plasma concentration of Compound I” value ([4]; 36 hours, mean, fasted dogs) was 273 ng/mL, the “Individual plasma concentration” value ([4]; 48 hours, fasted dogs, listed as Compound I di-tosylate salt) was “BLQ (4×) and 21.5 ng/mL” and the “Mean plasma concentration of Compound I” value ([4]; 48 hours, mean, fasted dogs) was 21.5 ng/mL. The AUC0-last ([4]; individual subjects) was 62700 ng·h/mL and 129000 ng·h/mL and 113000 ng·h/mL and 9680 ng·h/mL and 47200 ng·h/mL, the AUC0-rt ([4]; individual subjects) was 64100 ng·h/mL and 129000 ng·h/mL and 116000 ng·h/mL and 9890 ng·h/mL and 47300 ng·h/mL and the Cmax ([4]; individual subjects) was 8810 ng/mL and 11200 ng/mL and 13400 ng/mL and 1600 ng/mL and 8110 ng/mL. For the same compound, the tmax ([4]; individual subjects) was 2.00 h and 1.00 h, the AUC0-last ([4]; mean) was 88000 ng·h/mL and the AUC0-rt ([4]; mean) was 89100 ng·h/mL. The Cmax ([4]; mean) was 10400 ng/mL, the tmax ([4]; mean) was 2.00 h and the “Individual plasma concentration” value ([4]; Pre-dose, fasted pentagastrin-pretreated dogs) was “BLQ”. For the same compound, the “Mean plasma concentration of Compound I” value ([4]; Pre-dose, mean, fasted dogs) was “BLQ”.
For `Br.Br.Cn1cc(-c2cn(-c3ccc(OC(F)(F)F)cc3)c(=O)c3ncn(C)c23)cn1` [di-HBr crystalline], the “Solubility (24 hours)” value [2, 6] was 0.48 mg/mL, the “pH (24 hrs)” value [2] was 1.6 and the “pH (1 hr)” value [2] was 1.6. The “S 24 hrs” value [2] was 0.48 mg/mL and the “S 1 hr” value [2] was 0.54 mg/mL.
With `Cl.Cl.Cn1cc(-c2cn(-c3ccc(OC(F)(F)F)cc3)c(=O)c3ncn(C)c23)cn1` [di-HCl crystalline] the “Solubility (24 hours)” value [2, 6] was 0.76 mg/mL, the “pH (24 hrs)” value [2] was 1.5 and the “pH (1 hr)” value [2] was 1.3. For the same compound, the “S 24 hrs” value [2] was 0.76 mg/mL and the “S 1 hr” value [2] was 1.14 mg/mL.
With `Cn1cc(-c2cn(-c3ccc(OC(F)(F)F)cc3)c(=O)c3ncn(C)c23)cn1.Cn1cc(-c2cn(-c3ccc(OC(F)(F)F)cc3)c(=O)c3ncn(C)c23)cn1.O=S(=O)(O)CCS(=O)(=O)O` [hemi-edisylate] the “reversibility of water adsorption within the timeframe of observation” value [5] was “not reversible”, the “Solubility (24 hours)” value [2, 6] was 0.99 mg/mL and the “pH (24 hrs)” value [2] was 1.48. The “pH (1 hr)” value [2] was 1.42, the “S 24 hrs” value [2] was 0.99 mg/mL and the “S 1 hr” value [2] was 1.09 mg/mL.
For `Cn1cc(-c2cn(-c3ccc(OC(F)(F)F)cc3)c(=O)c3ncn(C)c23)cn1.Cn1cc(-c2cn(-c3ccc(OC(F)(F)F)cc3)c(=O)c3ncn(C)c23)cn1.O=S(=O)(O)c1cccc2c(S(=O)(=O)O)cccc12` [hemi-napadisylate], the “reversibility of water adsorption within the timeframe of observation” value [5] was “not reversible”, the “Solubility (24 hours)” value [2, 6] was 1.83 mg/mL and the “pH (24 hrs)” value [2] was 1.53. For the same compound, the “pH (1 hr)” value [2] was 1.53, the “S 24 hrs” value [2] was 1.83 mg/mL and the “S 1 hr” value [2] was 2.76 mg/mL.
With `Br.Cn1cc(-c2cn(-c3ccc(OC(F)(F)F)cc3)c(=O)c3ncn(C)c23)cn1` [mono-HBr amorphous] the “Solubility (24 hours)” value [2, 7] was 0.62 mg/mL, the “pH (24 hrs)” value [2] was 1.6 and the “S 24 hrs” value [2] was 0.62 mg/mL.
For `Br.Cn1cc(-c2cn(-c3ccc(OC(F)(F)F)cc3)c(=O)c3ncn(C)c23)cn1` [mono-HBr crystalline], the “pH (24 hrs)” value [2] was 1.9 and the “S 24 hrs” value [2] was 0.31 mg/mL.
For `Cl.Cn1cc(-c2cn(-c3ccc(OC(F)(F)F)cc3)c(=O)c3ncn(C)c23)cn1` [mono-HCl amorphous], the “Solubility (24 hours)” value [2, 7] was 0.70 mg/mL, the “pH (24 hrs)” value [2] was 1.6 and the “S 24 hrs” value [2] was 0.70 mg/mL.
With `Cl.Cn1cc(-c2cn(-c3ccc(OC(F)(F)F)cc3)c(=O)c3ncn(C)c23)cn1` [mono-HCl crystalline] the “pH (24 hrs)” value [2] was 1.6 and the “S 24 hrs” value [2] was 0.42 mg/mL.
In the case of `Cn1cc(-c2cn(-c3ccc(OC(F)(F)F)cc3)c(=O)c3ncn(C)c23)cn1.O=[N+]([O-])O` [mono-nitrate amorphous], the “pH (24 hrs)” value [2] is reported as 1.9 and the “S 24 hrs” value [2] is reported as 0.33 mg/mL.
In the case of `Cn1cc(-c2cn(-c3ccc(OC(F)(F)F)cc3)c(=O)c3ncn(C)c23)cn1.O=[N+]([O-])O` [mono-nitrate crystalline], the “pH (24 hrs)” value [2] is reported as 1.8, the “pH (1 hr)” value [2] is reported as 1.8 and the “S 24 hrs” value [2] is reported as 0.38 mg/mL. For the same compound, the “S 1 hr” value [2] was 0.42 mg/mL.
In the case of `Cn1cc(-c2cn(-c3ccc(OC(F)(F)F)cc3)c(=O)c3ncn(C)c23)cn1.O=S(=O)(O)O` [mono-sulfate amorphous], the “Solubility (24 hours)” value [2, 7] is reported as 0.84 mg/mL, the “pH (24 hrs)” value [2] is reported as 1.4 and the “pH (1 hr)” value [2] is reported as 1.2. The “S 24 hrs” value [2] was 0.84 mg/mL.
